≈ marks a conversion by molar mass, not a printed value.
What was measured:
CSF1R [1] = target: T1, CSF1R (Homo sapiens, UniProt P07333); experiment: CSF1R enzymatic inhibition, TR-FRET-based LANCE Ultra assay; format: biochemical; settings: single 8-point titrations, ATP concentration 25 µM, read-out: Enz. IC50
T1 sequence (P07333 539-972 limits assumed): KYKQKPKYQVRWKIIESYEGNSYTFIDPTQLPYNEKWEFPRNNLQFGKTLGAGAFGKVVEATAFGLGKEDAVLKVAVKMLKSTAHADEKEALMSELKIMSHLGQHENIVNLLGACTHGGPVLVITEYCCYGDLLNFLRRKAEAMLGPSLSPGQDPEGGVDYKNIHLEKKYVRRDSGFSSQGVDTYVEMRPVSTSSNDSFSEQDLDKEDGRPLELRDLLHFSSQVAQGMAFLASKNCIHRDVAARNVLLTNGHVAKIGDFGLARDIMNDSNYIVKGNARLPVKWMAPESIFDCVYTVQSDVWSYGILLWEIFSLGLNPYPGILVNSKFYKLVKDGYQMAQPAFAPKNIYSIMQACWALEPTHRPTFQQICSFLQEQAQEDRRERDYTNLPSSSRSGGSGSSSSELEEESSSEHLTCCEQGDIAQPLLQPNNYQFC

cKIT kinase = target: T2, cKIT kinase (Homo sapiens, UniProt P10721); experiment: KIT inhibition (KD), TR-FRET tracer displacement; format: binding; settings: kinase tracer 236, anti-GST antibody Eu-conjugate, read-out: KIT enz. KD
T2 construct: purchased Carna Biosciences
T2 sequence (P10721 26-976): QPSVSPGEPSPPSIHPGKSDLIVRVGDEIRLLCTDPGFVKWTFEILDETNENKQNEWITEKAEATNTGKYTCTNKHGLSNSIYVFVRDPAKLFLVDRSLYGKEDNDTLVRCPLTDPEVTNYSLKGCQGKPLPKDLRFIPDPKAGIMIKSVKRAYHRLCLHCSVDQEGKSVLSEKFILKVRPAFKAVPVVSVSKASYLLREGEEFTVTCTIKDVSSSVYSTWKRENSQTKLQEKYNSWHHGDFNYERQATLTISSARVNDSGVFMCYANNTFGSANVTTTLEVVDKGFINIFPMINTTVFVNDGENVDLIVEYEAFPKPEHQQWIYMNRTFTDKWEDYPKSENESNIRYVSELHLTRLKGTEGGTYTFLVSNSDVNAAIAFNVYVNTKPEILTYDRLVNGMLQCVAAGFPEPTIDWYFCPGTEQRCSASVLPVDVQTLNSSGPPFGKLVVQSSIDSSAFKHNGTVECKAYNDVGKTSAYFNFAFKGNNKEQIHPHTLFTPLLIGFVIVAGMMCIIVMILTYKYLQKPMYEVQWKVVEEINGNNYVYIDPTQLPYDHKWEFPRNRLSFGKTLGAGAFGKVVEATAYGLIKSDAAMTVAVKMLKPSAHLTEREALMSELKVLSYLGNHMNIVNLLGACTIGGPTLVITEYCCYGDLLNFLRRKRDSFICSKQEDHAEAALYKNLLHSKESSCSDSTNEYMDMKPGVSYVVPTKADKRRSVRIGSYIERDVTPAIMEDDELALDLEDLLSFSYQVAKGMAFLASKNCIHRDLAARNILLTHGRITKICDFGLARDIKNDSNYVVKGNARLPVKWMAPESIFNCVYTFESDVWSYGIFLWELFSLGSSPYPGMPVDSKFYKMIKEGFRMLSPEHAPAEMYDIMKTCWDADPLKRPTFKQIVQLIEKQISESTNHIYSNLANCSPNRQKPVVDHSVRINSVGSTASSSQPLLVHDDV

CSF1R [2] = target: CSF1R (Homo sapiens, UniProt P07333); experiment: CSF1R enzymatic IC50, Z-LYTE assay platform; format: biochemical; settings: for Hill coefficient: Z-LYTE CSF1R IC50 curve; for IC50: Z-LYTE, 10-point titrations in duplicates, ATP equal to KM ca. 10 µM, read-out: CSF1R enz. IC50
Target sequence in this assay (P07333 20-972): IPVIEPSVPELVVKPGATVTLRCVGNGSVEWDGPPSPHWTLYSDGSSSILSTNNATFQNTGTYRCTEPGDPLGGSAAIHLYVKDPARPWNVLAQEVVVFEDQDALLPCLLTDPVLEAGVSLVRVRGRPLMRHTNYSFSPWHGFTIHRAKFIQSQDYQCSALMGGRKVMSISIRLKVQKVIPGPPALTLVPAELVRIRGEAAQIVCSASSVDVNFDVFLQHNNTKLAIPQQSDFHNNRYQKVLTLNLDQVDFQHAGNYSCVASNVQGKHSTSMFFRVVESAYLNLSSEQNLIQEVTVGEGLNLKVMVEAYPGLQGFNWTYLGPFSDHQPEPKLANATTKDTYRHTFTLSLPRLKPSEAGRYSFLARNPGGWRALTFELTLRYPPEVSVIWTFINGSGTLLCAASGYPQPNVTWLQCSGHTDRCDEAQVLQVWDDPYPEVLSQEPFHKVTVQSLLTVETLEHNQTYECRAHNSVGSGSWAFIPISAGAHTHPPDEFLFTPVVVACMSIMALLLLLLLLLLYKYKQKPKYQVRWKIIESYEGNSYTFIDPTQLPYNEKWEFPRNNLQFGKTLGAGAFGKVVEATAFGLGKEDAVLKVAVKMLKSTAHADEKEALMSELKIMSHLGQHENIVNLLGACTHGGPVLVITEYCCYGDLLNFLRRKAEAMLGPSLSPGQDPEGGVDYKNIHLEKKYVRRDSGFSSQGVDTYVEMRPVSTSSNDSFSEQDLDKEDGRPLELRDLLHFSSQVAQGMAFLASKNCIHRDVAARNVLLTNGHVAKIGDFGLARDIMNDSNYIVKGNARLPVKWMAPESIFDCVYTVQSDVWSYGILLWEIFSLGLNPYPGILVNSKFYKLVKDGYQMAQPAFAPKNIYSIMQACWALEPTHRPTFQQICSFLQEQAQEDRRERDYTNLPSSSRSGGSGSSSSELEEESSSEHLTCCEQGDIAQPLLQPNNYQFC

[3] = Human liver microsome intrinsic clearance, Phase I; format: in vitro ADME; settings: in vitro intrinsic clearance
CSF1R Ba/F3 cells = experiment: Cell viability assay, Ba/F3 cells engineered to be dependent on CSF1R; format: cell-based; settings: duplicate measurements
[4] = test system: IL-3 dependent Ba/F3 cell line (CSF1R independent); experiment: Control assay for cellular toxicity, Ba/F3 cells dependent on IL-3; format: cell-based; settings: Mus musculus, BaF3; Ba/F3 cells dependent on IL-3, control for cellular toxicity
[5] = Mouse plasma protein binding; format: in vitro ADME; settings: fraction bound, read-out: PPB (converted)
[6] = test system: KIT-positive cell line GIST-T1; experiment: GIST-T1 CellTiter-Glo cell viability assay; format: cell-based; settings: Homo sapiens, GISTT1; cellular proliferation, GIST-T1, 72 h
[7] = Mouse liver microsome intrinsic clearance, Phase I; format: in vitro ADME; settings: in vitro intrinsic clearance
[8] = Kinetic solubility, spectrophotometric; format: physicochemical; settings: aqueous buffer, kinetic from dmso stock, spectrophotometrically at pH 7.4 in HEPES buffer
MDCK permeability assay = format: in vitro ADME, canine; settings: dog, MDCK cell monolayer; for Papp A→B: A-B direction; for Papp B→A: B-A direction; for efflux ratio: read-out: Ratio Papp B > A/Papp A > B
[9] = Caco-2 permeability assay; format: in vitro ADME; settings: human; Caco-2 cell assay
[10] = Mus musculus, BaF3, Ba/F3 cells dependent on CSF1R

Row | SMILES | IC50 (CSF1R [1]) [nM] | Kd (cKIT kinase) [nM] | Hill coefficient (CSF1R [2]) | IC50 (CSF1R [2]) [nM] | HLM [3] [µL/min/mg] | IC50 (CSF1R Ba/F3 cells; [10]) [nM] | IC50 [4] [nM] | fraction unbound [5] | IC50 [6] [nM] | MLM [7] [µL/min/mg] | solubility kinetic [8] [µM] | Papp A→B (MDCK permeability assay) [×10⁻⁶ cm/s] | Papp B→A (MDCK permeability assay) [×10⁻⁶ cm/s] | efflux ratio (MDCK permeability assay) | IC50 (CSF1R Ba/F3 cells; Ba/F3 cells dependent on CSF1R) [nM] | Papp A→B [9] [×10⁻⁶ cm/s] | Papp B→A [9] [×10⁻⁶ cm/s]
1 | COc1ccc(-n2cc(-c3cc4c(N(C)CC5CCOCC5)ncnc4[nH]3)nn2)cc1 [Compound 21b, 6-(1-(4-Methoxyphenyl)-1H-1,2,3-triazol-4-yl)-N-methyl-N-((tetrahydro-2H-pyran-4-yl)methyl)-7H-pyrrolo[2,3-d]pyrimidin-4-amine] | 3 | > 1000 | 0.913 | 1.2 ± 0.3 | 74.5 | 600 ± 200 | > 10000 | 0.24 | > 30000 | 288 | 7.3 (≈ 3.06 µg/mL) | 10.7 | 13.6 | 1.3 |  |  | 
2 | Cc1ccc(Cn2cc(-c3cc4c(N(C)CC5CCOCC5)ncnc4[nH]3)nn2)cc1 [Compound 25b, N-Methyl-6-(1-(4-methylbenzyl)-1H-1,2,3-triazol-4-yl)-N-((tetrahydro-2H-pyran-4-yl)methyl)-7H-pyrrolo[2,3-d]pyrimidin-4-amine] | < 1 | > 100 | 0.981 | 1.3 | 62.4 | 1000 | > 10000 | 0.025 | > 3000 | 1980 | 10.6 (≈ 4.43 µg/mL) | 10 | 25.4 | 2.6 | 500 |  | 
3 | CN(CC1CCOCC1)c1ncnc2[nH]c(-c3cn(Cc4cccnc4)nn3)cc12 [Compound 27b, N-Methyl-6-(1-(pyridin-3-ylmethyl)-1H-1,2,3-triazol-4-yl)-N-((tetrahydro-2H-pyran-4-yl)methyl)-7H-pyrrolo[2,3-d]pyrimidin-4-amine] | 1.8 |  |  |  |  | 1700 ± 100 | > 10000 | < 0.01 |  |  | 43 (≈ 17.4 µg/mL) |  |  |  |  |  | 
4 | CN(CC1CCOCC1)c1ncnc2[nH]c(-c3cn(CC4CCOCC4)nn3)cc12 [Compound 31b, N-Methyl-N-((tetrahydro-2H-pyran-4-yl)methyl)-6-(1-((tetrahydro-2H-pyran-4-yl)methyl)-1H-1,2,3-triazol-4-yl)-7H-pyrrolo[2,3-d]pyrimidin-4-amine] | < 1 |  |  |  |  | 1000 ± 200 | > 10000 |  |  |  | 45 (≈ 18.5 µg/mL) |  |  |  |  |  | 
5 | FC(F)(F)c1ccc(CNc2ccc(Cc3c[nH]c4ncc(Cl)cc34)cn2)cn1 [PLX-3397, pexidartinib, reference compound] |  |  | 1.18 |  |  | 60 ± 100 | > 10000 | < 0.01 | 30 |  |  |  |  |  |  |  | 
6 | Cc1cccc(CN(C)c2ncnc3[nH]c(-c4ccc(CO)cc4)cc23)c1 [Structure III] |  |  |  |  |  |  |  |  |  |  |  |  |  |  |  | 0.69 | 0.19
7 | CN(CC1CCOCC1)c1ncnc2[nH]c(-c3ccc(N)cc3)cc12 [Structure IV, reference compound] |  |  |  |  |  |  |  | 0.236 |  |  |  |  |  |  |  |  | 
